This note sets out measurements from patent US12600725B2 (Memorial Sloan-Kettering Cancer Center, priority 2013, dated 2026).

One test addresses T1, Trap-1 (Homo sapiens, UniProt Q12931).
T1 sequence (Q12931 60-704): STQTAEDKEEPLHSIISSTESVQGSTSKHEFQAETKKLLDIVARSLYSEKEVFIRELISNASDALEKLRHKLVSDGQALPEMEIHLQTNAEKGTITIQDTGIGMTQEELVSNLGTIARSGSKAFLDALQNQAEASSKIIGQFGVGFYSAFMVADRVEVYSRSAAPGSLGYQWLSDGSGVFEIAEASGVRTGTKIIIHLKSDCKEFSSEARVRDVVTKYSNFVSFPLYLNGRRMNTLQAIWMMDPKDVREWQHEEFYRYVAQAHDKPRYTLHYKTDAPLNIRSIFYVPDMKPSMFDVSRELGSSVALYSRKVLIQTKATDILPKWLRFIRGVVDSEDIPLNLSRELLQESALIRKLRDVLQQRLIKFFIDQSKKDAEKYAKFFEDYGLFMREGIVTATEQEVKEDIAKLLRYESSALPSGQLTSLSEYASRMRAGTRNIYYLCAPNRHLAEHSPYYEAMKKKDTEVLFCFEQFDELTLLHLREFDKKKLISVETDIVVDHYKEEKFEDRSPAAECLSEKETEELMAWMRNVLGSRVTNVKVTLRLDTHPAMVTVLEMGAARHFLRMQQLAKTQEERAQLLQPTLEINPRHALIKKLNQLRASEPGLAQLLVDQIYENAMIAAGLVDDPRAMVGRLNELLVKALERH
The test is described as follows: biochemical.

The next test deals with Grp94 (Canis lupus familiaris, UniProt P41148). The following applies: read-out: Grp94; FP competition, 6 nM Cy3B-GM, 10 nM protein, 4° C. for 24 h.
The target of the next test is Hsp90α (Homo sapiens, UniProt P07900). The test can be described thus: biochemical. The following applies: FP competition, 6 nM Cy3B-GM, 10 nM protein, 4° C. for 24 h.
A further test concerns the target Hsp90β (Homo sapiens, UniProt P08238).

Chain of Grp94 (P41148 with tags, fused parts or gaps DELINS287-327GGGG): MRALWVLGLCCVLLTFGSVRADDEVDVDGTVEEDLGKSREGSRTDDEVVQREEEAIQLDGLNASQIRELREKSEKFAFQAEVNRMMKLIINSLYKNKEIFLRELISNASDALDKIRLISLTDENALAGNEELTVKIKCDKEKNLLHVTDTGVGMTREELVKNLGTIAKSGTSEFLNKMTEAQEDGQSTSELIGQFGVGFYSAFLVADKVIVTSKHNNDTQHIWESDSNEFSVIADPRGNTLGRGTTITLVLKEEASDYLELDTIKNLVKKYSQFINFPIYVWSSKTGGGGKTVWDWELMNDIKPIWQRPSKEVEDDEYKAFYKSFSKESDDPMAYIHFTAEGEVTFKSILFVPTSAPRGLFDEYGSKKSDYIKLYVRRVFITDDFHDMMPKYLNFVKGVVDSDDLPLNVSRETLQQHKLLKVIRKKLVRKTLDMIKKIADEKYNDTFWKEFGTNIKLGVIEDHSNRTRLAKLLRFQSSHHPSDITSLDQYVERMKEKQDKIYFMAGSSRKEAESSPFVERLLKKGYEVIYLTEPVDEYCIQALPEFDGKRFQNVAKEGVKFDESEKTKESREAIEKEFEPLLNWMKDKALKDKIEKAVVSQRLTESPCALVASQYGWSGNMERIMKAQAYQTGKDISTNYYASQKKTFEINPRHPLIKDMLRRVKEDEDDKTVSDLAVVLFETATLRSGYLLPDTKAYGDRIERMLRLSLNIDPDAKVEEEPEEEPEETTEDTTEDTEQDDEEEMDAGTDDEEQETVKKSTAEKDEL
Chain of Hsp90β (P08238 whole entry): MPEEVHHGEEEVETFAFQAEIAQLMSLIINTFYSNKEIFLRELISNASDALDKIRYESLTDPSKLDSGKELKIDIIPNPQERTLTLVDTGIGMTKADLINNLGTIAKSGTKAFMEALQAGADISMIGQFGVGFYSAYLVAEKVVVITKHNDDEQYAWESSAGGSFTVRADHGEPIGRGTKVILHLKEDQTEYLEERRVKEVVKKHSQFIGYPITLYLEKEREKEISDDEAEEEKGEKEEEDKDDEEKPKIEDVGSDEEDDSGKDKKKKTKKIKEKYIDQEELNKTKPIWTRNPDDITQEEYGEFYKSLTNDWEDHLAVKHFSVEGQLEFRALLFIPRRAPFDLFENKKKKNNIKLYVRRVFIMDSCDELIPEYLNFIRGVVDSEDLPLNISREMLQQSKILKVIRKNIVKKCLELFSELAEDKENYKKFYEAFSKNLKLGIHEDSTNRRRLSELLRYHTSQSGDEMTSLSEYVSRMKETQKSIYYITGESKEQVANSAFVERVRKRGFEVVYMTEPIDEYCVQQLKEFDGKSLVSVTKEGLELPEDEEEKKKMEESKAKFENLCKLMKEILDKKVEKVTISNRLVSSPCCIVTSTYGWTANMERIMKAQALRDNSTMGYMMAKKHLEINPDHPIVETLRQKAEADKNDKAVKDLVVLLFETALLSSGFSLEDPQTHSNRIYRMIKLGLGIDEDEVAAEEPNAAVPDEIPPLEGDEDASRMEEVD

Turning to `CC(C)(CO)NCCn1c(Sc2ccc(Cl)cc2Cl)nc2c(N)ncnc21` [HJP-V-84, 2-((2-(6-Amino-8-((2,4-dichlorophenyl)thio)-9H-purin-9-yl)ethyl)amino)-2-methylpropan-1-ol], the results for the IC50 against Trap-1, at Grp94 and at Hsp90α were 4.4 µM, 1.9 µM and 28.9 µM, respectively.

As for `CC(C)(O)CNCCn1c(Sc2ccc(Cl)cc2Cl)nc2c(N)ncnc21` [HJP-V-85, 1-((2-(6-Amino-8-((2,4-dichlorophenyl)thio)-9H-purin-9-yl)ethyl)amino)-2-methylpropan-2-ol], the IC50 against Trap-1 turned out to be 2.6 µM; at Grp94, 2.3 µM; at Hsp90α, 9.2 µM.

Consider `N#CCCCn1c(Sc2cc(Cl)cc(Cl)c2)nc2c(N)ncnc21` [PDP-93A, 4-(6-Amino-8-((3,5-dichlorophenyl)thio)-9H-purin-9-yl)butanenitrile], for which the IC50 at Trap-1 is 4.47 ± 0.31 µM; on Grp94 it was 0.45 ± 0.03 µM; on Hsp90β, over 100 µM; on Hsp90α, over 50 µM.

As to `N#CCCCn1cnc(N)c2nc(Sc3cc(Cl)cc(Cl)c3)nc1-2` [PDP-93B, 4-(6-Amino-8-((3,5-dichlorophenyl)thio)-3H-purin-3-yl)butanenitrile], the IC50 on Trap-1, at Grp94, against Hsp90β and on Hsp90α was over 100 µM in each case.

On to `CC(Br)CCCn1c(Sc2cc(Cl)cc(Cl)c2)nc2c(N)ncnc21` (stereo not drawn) [PDP-99A, 9-(4-Bromopentyl)-8-((3,5-dichlorophenyl)thio)-9H-purin-6-amine], for which the IC50 against Trap-1 is over 100 µM; on Grp94, 1.52 ± 0.03 µM; on Hsp90β, over 100 µM; at Hsp90α it was over 100 µM.

As to `CC(Br)CCCn1cnc(N)c2nc(Sc3cc(Cl)cc(Cl)c3)nc1-2` (stereo not drawn) [PDP-99B, 3-(4-Bromopentyl)-8-((3,5-dichlorophenyl)thio)-3H-purin-6-amine], the IC50 on Trap-1 was over 100 µM; at Grp94, over 10 µM; on Hsp90α it was over 100 µM.

Take `Nc1ncnc2c1nc(Sc1cc(Cl)cc(Cl)c1)n2Cc1ccccc1` [PDP-107A, 9-Benzyl-8-((3,5-dichlorophenyl)thio)-9H-purin-6-amine]: the IC50 against Trap-1 was over 50 µM; at Grp94 it was over 5 µM; at Hsp90α, over 100 µM.

In the case of `Nc1ncnc2c1nc(Sc1cc(Cl)cc(Cl)c1)n2CCCC(F)(F)F` [PDP-I-15-N9, 8-((3,5-Dichlorophenyl)thio)-9-(4,4,4-trifluorobutyl)-9H-purin-6-amine], the IC50 on Trap-1 is over 50 µM; at Grp94, 0.46 ± 0.04 µM.

Regarding `C#CCCCn1c(Sc2cc(Cl)cc(Br)c2)nc2c(N)ncnc21` [PDP-I-53-N9], the IC50 is over 100 µM against Trap-1 and 0.22 ± 0.02 µM at Grp94.

Regarding `C#CCCCn1c(Sc2ccc(Br)cc2Cl)nc2c(N)ncnc21` [PDP-I-61-N9], the results for the IC50 against Trap-1, on Grp94 and against Hsp90β were 2.62 ± 0.28 µM, 0.28 ± 0.06 µM and over 50 µM, respectively.

On to `CCCCn1c(Cc2ccc(OC)cc2)nc2c(N)ncnc21` [PU1], for which the values for the IC50 at Grp94, at Hsp90β and on Hsp90α were 3.2 ± 0.4 µM, 92 ± 2 µM and 110 ± 20 µM, respectively.

For `C#CCCCn1c(Sc2ccc(OC)cc2)nc2c(N)ncnc21` [PU-H1], the IC50 at Grp94 is 1.13 ± 0.2 µM; against Hsp90β it was over 100 µM; on Hsp90α it was over 100 µM.

With `C#CCCCn1c(Sc2cc(Cl)ccc2C(F)(F)F)nc2c(N)ncnc21` [PU-H2], the IC50 was 0.5 ± 0.2 µM at Grp94 and 6.5 ± 2.3 µM against Hsp90β.

For `C#CCCCn1c(Sc2ccccc2OC)nc2c(N)ncnc21` [PU-H5], the IC50 at Grp94 turned out to be 6.2 ± 2.5 µM; against Hsp90β it was 110 ± 120 µM.

`C#CCCCn1c(Sc2ccccc2Cl)nc2c(N)ncnc21` [PU-H6]: the IC50 is 0.35 ± 0.05 µM at Grp94, over 100 µM at Hsp90β and over 100 µM at Hsp90α.

As to `C#CCCCn1c(Sc2ccc(OC)cc2OC)nc2c(N)ncnc21` [PU-H8], the values for the IC50 on Grp94, against Hsp90β and on Hsp90α were 34.5 ± 3.5 µM, 22.4 ± 2.8 µM and 47.4 ± 2.2 µM, respectively.

Consider `C#CCCCn1c(Sc2ccccc2OC(F)(F)F)nc2c(N)ncnc21` [PU-H9], for which the IC50 on Grp94 is 1.4 ± 0.2 µM; on Hsp90β, over 100 µM; on Hsp90α, over 100 µM.

Turning to `C#CCCCn1cnc(N)c2nc(Sc3cc(C)ccc3C)nc1-2` [PU-H29], the IC50 was 185 ± 15 µM at Grp94, over 100 µM at Hsp90β and over 100 µM on Hsp90α.

In the case of `C#CCCCn1c(Sc2ccccc2CO)nc2c(N)ncnc21` [PU-H34], the IC50 on Grp94 is 29 ± 9 µM; against Hsp90β, over 100 µM; on Hsp90α, over 100 µM.

For the molecule `C#CCCCn1cnc(N)c2nc(Sc3ccccc3CO)nc1-2` [PU-H35], the IC50 at Grp94, at Hsp90β and at Hsp90α was over 100 µM throughout.

Consider `C#CCCCn1c(Sc2c(C)cc(C)cc2C)nc2c(N)ncnc21` [PU-H36], for which the IC50 at Grp94 is 2.1 ± 0.56 µM; against Hsp90β it was over 250 µM; on Hsp90α it was over 250 µM.

In the case of `C#CCCCn1cnc(N)c2nc(Sc3c(C)cc(C)cc3C)nc1-2` [PU-H37], the values for the IC50 at Grp94, against Hsp90β and on Hsp90α were 20 ± 5 µM, over 100 µM and over 100 µM, respectively.

Regarding `C#CCCCn1cnc(N)c2nc(Sc3ccc(Cl)cc3Cl)nc1-2` [PU-H38], the IC50 at Grp94 was 2.37 ± 0.79 µM; at Hsp90β, over 500 µM; on Hsp90α, over 500 µM.

For `C#CCCCn1cnc(N)c2nc(Sc3cc(Cl)ccc3Cl)nc1-2` [PU-H43], the results for the IC50 on Grp94, against Hsp90β and on Hsp90α were 35.3 ± 5 µM, over 100 µM and over 100 µM, respectively.

On to `C#CCCCn1cnc(N)c2nc(Sc3cc(C)cc(C)c3)nc1-2` [PU-H45], for which the IC50 at Grp94, at Hsp90β and on Hsp90α was over 100 µM throughout.

Consider `C#CCCCn1cnc(N)c2nc(Sc3ccccc3OC)nc1-2` [PU-H46], for which the IC50 on Grp94, against Hsp90β and at Hsp90α was over 100 µM in each case.

Turning to `C#CCCCn1cnc(N)c2nc(Sc3ccccc3Cl)nc1-2` [PU-H47], the IC50 at Hsp90β and at Hsp90α was over 100 µM each time.

As to `C#CCCCn1cnc(N)c2nc(Sc3ccccc3OC(F)(F)F)nc1-2` [PU-H48], the values for the IC50 at Grp94, against Hsp90β and on Hsp90α were 106 µM, over 100 µM and over 100 µM, respectively.

`C#CCCCn1cnc(N)c2nc(Sc3cc(Cl)c(Cl)cc3Cl)nc1-2` [PU-H52]: the IC50 on Grp94 was 2.08 ± 1.49 µM; on Hsp90β, over 100 µM; at Hsp90α, over 100 µM.

As for `C#CCCCn1cnc(N)c2nc(Sc3cc(Cl)ccc3C(F)(F)F)nc1-2` [PU-H53], the IC50 at Grp94 is 200 µM; against Hsp90β, over 100 µM; on Hsp90α, over 100 µM.

Turning to `C#CCCCn1cnc(N)c2nc(Sc3cc(Br)ccc3OC)nc1-2` [PU-H63], the IC50 on Grp94 turned out to be 2.3 ± 0.1 µM; against Hsp90β, 2.5 ± 0.2 µM; at Hsp90α, 5.9 ± 0.5 µM.

With `CN1CCN(CCn2c(Sc3cc(Cl)cc(Cl)c3)nc3c(N)ncnc32)CC1` [SO-III-39A, 8-((3,5-dichlorophenyl)thio)-9-(2-(4-methylpiperazin-1-yl)ethyl)-9H-purin-6-amine], the values for the IC50 on Grp94 and on Hsp90α were 0.373 µM and 52.2 µM, respectively.

As to `COC(C)CNCCn1c(Sc2cc(Cl)cc(Cl)c2)nc2c(N)ncnc21` (stereo not drawn) [SO-III-75A, 8-((3,5-dichlorophenyl)thio)-9-(2-((2-methoxypropyl)amino)ethyl)-9H-purin-6-amine], the IC50 was 0.89 µM at Grp94 and 39.9 µM at Hsp90α.

For the molecule `Nc1ncnc2c1nc(Sc1cc(Cl)cc(Cl)c1)n2CCCn1ccnc1` [SO-III-103A, 9-(3-(1H-imidazol-1-yl)propyl)-8-((3,5-dichlorophenyl)thio)-9H-purin-6-amine], the IC50 on Grp94 was 0.203 µM; at Hsp90α, over 10 µM.

On to `CC(C)NCCCn1c(Sc2cc(Cl)cc(Cl)c2)nc2c(N)nccc21` [SO-III-154, 2-((3,5-dichlorophenyl)thio)-1-(3-(isopropylamino)propyl)-1H-imidazo[4,5-c]pyridin-4-amine], for which the IC50 on Grp94 is 2.59 µM; on Hsp90α, over 50 µM.

In the case of `CC(C)NCCCn1c(Sc2cccc3ccccc23)nc2c(N)nccc21` [SO-IV-03, 1-(3-(isopropylamino)propyl)-2-(naphthalen-1-ylthio)-1H-imidazo[4,5-c]pyridin-4-amine], the values for the IC50 at Grp94 and on Hsp90α were over 5 µM and over 50 µM, respectively.

On to `Cc1ccc(Sc2nc3c(N)ncn(CCCNC(C)C)c-3n2)c(C)c1` [WS-11, 8-((2,4-Dimethylphenyl)thio)-3-(3-(isopropylamino)propyl)-3H-purin-6-amine], for which the figures for the IC50 at Grp94 and on Hsp90α were 25 µM and over 100 µM, respectively.

Take `CC(C)NCCCn1c(Sc2cc(C(F)(F)F)cc(C(F)(F)F)c2)nc2c(N)ncnc21` [WS-14, 8-((3,5-Bis(trifluoromethyl)phenyl)thio)-9-(3-(isopropylamino)propyl)-9H-purin-6-amine]: the IC50 on Grp94 turned out to be 2.43 µM; on Hsp90α, 8.56 µM.
